Measured values from patent US20100204182A1, “ECTONUCLEOTIDASE INHIBITORS” (RHEINISCHE FRIEDRICH-WILHELMS-UNIVERSITAT BONN, priority 2006, published 2010).

Tests used:
[1] = target: T1, human NTPDase8 (Homo sapiens, UniProt Q5MY95); experiment: NTPDase inhibition assay by capillary electrophoresis (CE), NTPDase8; format: biochemical; details: for inhibition at 1000 µM: human NTPDase8, 1 mM compound, ATP 320 μM; for Ki: read-out: NTPDase8 Ki [μM] ± SEM
T1 sequence (Q5MY95 1-495): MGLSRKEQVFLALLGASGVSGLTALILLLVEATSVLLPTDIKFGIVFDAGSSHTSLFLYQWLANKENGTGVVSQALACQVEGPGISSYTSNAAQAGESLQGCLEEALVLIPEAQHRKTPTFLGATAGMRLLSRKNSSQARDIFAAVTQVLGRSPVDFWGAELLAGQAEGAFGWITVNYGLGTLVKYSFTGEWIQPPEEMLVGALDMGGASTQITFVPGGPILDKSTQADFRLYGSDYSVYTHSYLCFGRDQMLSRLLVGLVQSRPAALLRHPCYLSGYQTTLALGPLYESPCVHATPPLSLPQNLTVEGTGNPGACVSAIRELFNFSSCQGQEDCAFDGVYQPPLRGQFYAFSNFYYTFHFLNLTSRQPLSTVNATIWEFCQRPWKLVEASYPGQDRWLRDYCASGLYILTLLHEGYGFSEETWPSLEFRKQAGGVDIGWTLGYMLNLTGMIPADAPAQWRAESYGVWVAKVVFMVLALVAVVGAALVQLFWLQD
Description: The applied enzyme inhibition assay has been described (Iqbal J, Vollmayer P, Braun N, Zimmermann H, Müller C E. A capillary electrophoresis method for the characterization of ecto-nucleoside triphosphate diphosphohydrolases (NTPDases) and the analysis of inhibitors by in-capillary enzymatic microreaction. Purinergic Signalling 2005, 1, 349-358).
A. CE instrumentation: All experiments were carried out using a P/ACE MDQ capillary electrophoresis system (Beckman Instruments, Fullerton, Calif., USA) equipped with a UV detection system coupled with a diode-array detector (DAD). Data collection and peak area analysis were performed by the P/ACE MDQ software 32 KARAT obtained from Beckman Coulter. The capillary temperature was kept constant at 25° C. The temperature of the sample storing unit was also adjusted to 25° C. The electrophoretic separations were carried out using an eCAP polyacrylamide-coated fused-silica capillary [(30 cm (20 cm effective length)×50 μm internal diameter (I.D.)×360 μm outside diameter (O.D.), obtained from CS-Chromatographie (Langerwehe, Germany)]. The separation was performed using an applied current of −60 μA and a data acquisition rate of 8 Hz. Analytes were detected using direct UV absorbance at 210 nm. The capillary was conditioned by rinsing with water for 2 min and subsequently with buffer (phosphate 50 mM, pH 6.5) for 1 min. Sample injections were made at the cathodic side of the capillary.
B. NTPDase inhibition assay by capillary electrophoresis: Enzyme inhibition assays were carried out at 37° C. in a final volume of 100 μl. The reaction mixture contained 320 μM of ATP (substrate) in reaction buffer. The reaction buffer contained 140 mM NaCl, 5 mM KCl, 1 mM MgCl2, 2 mM CaCl2, and 10 mM Hepes, pH 7.4.
Different concentrations of inhibitors dissolved in DMSO or water (10 μl) were added and the reaction was initiated by the addition of 10 μl of the appropriately diluted recombinant or native human or rat NTPDase enzyme. […] The mixture (final volume 100 μl) was incubated for 15 min and terminated by heating at 99° C. for 4 min. Aliquots of the reaction mixture (50 μl) were then transferred to mini-CE vials and injected into the CE instrument under the conditions described above. 20 μM of UMP was used as internal standard. Inhibition of NTPDase was tested over a range of 6 to 8 concentrations of test compound spanning 3 orders of magnitude to determine K1 values. Each analysis was repeated two times (in triplicates) in two separate experiments. The Cheng-Prusoff equation was used to calculate the K1 values from the IC50 values, determined by the non-linear curve fitting program PRISM® 3.0 (GraphPad, San Diego, Calif., USA). In table 1K, values of selected compounds as inhibitors of human NTPDases are given.

[2] = target: T2, human NTPDase1 (Homo sapiens, UniProt P49961); experiment: NTPDase inhibition assay by capillary electrophoresis (CE), NTPDase1; format: biochemical; details: ATP 320 μM; for Ki: CE method, Km 17 μM, read-out: NTPDase1 Ki [μM] ± SEM
T2 sequence (P49961 1-510): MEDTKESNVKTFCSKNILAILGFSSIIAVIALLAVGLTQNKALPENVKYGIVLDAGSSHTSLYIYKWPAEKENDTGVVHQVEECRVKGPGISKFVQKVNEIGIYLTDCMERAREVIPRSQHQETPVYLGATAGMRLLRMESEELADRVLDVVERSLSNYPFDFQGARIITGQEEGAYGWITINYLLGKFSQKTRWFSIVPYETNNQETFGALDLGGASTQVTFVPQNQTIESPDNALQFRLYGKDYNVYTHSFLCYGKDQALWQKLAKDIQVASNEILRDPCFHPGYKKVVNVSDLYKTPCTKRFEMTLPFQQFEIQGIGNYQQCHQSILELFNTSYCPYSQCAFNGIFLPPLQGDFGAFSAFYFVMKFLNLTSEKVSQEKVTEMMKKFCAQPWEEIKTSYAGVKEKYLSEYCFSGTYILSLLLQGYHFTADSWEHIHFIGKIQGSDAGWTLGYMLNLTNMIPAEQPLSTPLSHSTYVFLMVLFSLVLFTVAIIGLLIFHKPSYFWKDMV
Procedure, shortened: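 Recombinant or native human NTPDase was run with 320 μM ATP in Hepes buffer pH 7.4 (NaCl, KCl, MgCl2, CaCl2) at 37° C for 15 min, stopped by heating at 99° C. Products were quantified by capillary electrophoresis (UV 210 nm, UMP internal standard). IC50 from 6-8 concentrations was converted to Ki by Cheng-Prusoff.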

[3] = target: hP2Y4 (Homo sapiens, UniProt P51582); experiment: Inhibition of UTP binding at hP2Y4; details: read-out: hP2Y4 % inhibition of UTP binding at 100 μM, n = 3, mean ± SEM
Sequence of hP2Y4 (P51582 whole entry): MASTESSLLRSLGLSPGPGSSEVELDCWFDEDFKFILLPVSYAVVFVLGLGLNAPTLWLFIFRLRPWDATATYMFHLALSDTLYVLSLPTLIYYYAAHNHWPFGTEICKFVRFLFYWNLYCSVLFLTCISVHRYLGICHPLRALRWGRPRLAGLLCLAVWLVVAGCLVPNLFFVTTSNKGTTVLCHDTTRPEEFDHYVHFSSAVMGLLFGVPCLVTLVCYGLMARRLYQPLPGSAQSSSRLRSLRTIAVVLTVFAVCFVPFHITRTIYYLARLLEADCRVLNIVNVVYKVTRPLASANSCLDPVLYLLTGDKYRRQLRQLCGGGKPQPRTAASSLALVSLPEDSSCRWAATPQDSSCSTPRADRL
Description: In table 2 inhibition data of selected examples at human P2Y receptor subtypes were collected. It can be seen that no compound was identified that inhibited P2Y receptors at high concentrations of 100 μM and 10 μM, respectively.

Compound	inhibition at 1000 µM [1] [%]	Ki [1] [µM]	inhibition at 1000 µM ([2]; 1 mM compound) [%]	Ki [2] [µM]	inhibition at 100 µM [3] [%]
CCOP(=O)(Cc1ccc(NC(=O)CNC(=O)[C@H]2O[C@@H](n3ccc(=O)[nH]c3=O)C(O)C2O)cc1)OCC (stereo in doubt) [Compound 2, 4-[2-((2S,3R,4S,5R)-5-(2,4-Dioxo-3,4-dihydropyrimidin-1(2H)-yl)-3,4-dihydroxy-tetrahydrofurane-2-carboxamido)ethaneamido]benzylphosphonic acid diethylester]	0	> 100	50	> 50	
CCOP(=O)(Cc1ccc(NC(=O)CCNC(=O)[C@H]2O[C@@H](n3ccc(=O)[nH]c3=O)C(O)C2O)cc1)OCC (stereo in doubt) [Compound 3, 4-[3-((2S,3R,4S,5R)-5-(2,4-Dioxo-3,4-dihydropyrimidin-1(2H)-yl)-3,4-di-hydroxy-tetrahydrofurane-2-carboxamido)propaneamido]benzylphosphonic acid diethylester]	0	> 100		55.2 ± 2.6	14 ± 6
